Where two headings read alike, the source gives them in different places.

The results in this text go back to patent US9309263B2, “Fused multi-cyclic sulfone compounds as inhibitors of beta-secretase and methods of use thereof” (AMGEN INC., priority 2013, dated 2016).

In experiment [1] the target is Beta Secretase enzyme (BACE) (Homo sapiens, UniProt P56817). Description: In vitro enzymatic BACE FRET assay. It counts as biochemical. As to conditions: read-out: BACE1 FRET assay IC50. The method in brief: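 Enzyme (0.2 nM) pre-incubated 1 h with serially diluted inhibitors in 0.05 M acetate pH 4.2, 10% DMSO, 100 uM genapol. Reaction started with 50 nM fluorophore/quencher peptide FRET substrate, run 1 h, stopped with Tris to neutral pH. Fluorescence read at excitation 488 nm, […].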
Chain of Beta Secretase enzyme (BACE) (P56817 46-501): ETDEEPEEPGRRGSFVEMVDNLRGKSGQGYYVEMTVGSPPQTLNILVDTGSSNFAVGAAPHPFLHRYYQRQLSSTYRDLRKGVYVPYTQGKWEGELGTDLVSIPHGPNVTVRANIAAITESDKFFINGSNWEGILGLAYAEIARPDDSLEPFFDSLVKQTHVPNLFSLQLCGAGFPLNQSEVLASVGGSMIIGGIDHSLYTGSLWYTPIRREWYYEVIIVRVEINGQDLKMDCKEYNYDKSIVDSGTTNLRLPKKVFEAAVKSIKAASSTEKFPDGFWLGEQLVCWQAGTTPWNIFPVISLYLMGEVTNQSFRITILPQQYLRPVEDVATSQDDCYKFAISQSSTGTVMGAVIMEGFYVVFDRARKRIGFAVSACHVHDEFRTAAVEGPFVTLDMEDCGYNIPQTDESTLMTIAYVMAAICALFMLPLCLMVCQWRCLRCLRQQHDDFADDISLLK

The target in a further experiment is Cathepsin D (Cat D) (Homo sapiens, UniProt P07339). Description: In vitro enzymatic Cathepsin D (Cat D) FRET assay. It counts as biochemical. The method in brief:
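Recombinant CHO-expressed enzyme (9 nM) pre-incubated 1 h with serially diluted inhibitor in 0.05 M citrate pH 3.5, 10% DMSO final, 5 mM CHAPS. Reaction started with 20 nM FRET peptide substrate, run 1 h, stopped with Tris to neutral pH; fluorescence read at ex 500/em 580 nm.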

Experiment [2] concerns Aβ 40 in conditioned medium of cells stably expressing Amyloid Precursor Protein (APP). In words: In vitro BACE cell-based assay (Aβ 40 sandwich ELISA). Summed up:
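APP-expressing cells, 24 h pre-culture in DMEM/10% FBS, treated 24 h with 10-point compound dilutions from 100 or 10 μM top, 0.1% DMSO final. Secreted Aβ40 quantified by sandwich ELISA (pAb40 capture, biotinylated 6E10 detection, europium TRF); IC50 from percent inhibition versus concentration.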

[3] abbreviates: average IC50, in vitro enzymatic BACE FRET assay.
The mark [4] stands for this setting: Cathepsin D FRET assay, read-out: CatD IC50.
Where [5] appears, read: Homo sapiens, HEK293, average IC50, HEK cell assay, Aβ 40 readout.
[6] abbreviates: Homo sapiens, HEK293, HEK cell, average IC50.
Setting [7] is: Homo sapiens, HEK293, HEK cells, average IC50.

Chain of Cathepsin D (Cat D) (P07339 65-412, species assumed): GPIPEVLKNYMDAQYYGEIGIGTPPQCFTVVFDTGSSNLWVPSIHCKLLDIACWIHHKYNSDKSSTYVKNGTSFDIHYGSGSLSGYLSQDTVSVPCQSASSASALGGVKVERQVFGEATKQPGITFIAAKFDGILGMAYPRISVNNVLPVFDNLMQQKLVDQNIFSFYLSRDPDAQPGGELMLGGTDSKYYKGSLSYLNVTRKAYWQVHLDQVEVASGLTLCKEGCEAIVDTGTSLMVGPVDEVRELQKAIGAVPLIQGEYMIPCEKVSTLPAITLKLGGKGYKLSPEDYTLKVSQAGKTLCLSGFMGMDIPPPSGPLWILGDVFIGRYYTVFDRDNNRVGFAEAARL

In the case of `CC1(C)C(N)=N[C@]2(CF)c3cc(Nc4nccc5cc(Cl)cnc45)ccc3OCC[C@H]2S1(=O)=O` [Example 148, (4aR,11bS)-N^~10^~-(3-chloro-1,7-naphthyridin-8-yl)-11b-(fluoromethyl)-3,3-dimethyl-4a,5,6,11b-tetrahydro-3H-[1]benzoxepino[4,5-b][1,4]thiazine-2,10-diamine 4,4-dioxide], the IC50 was 0.012 µM in experiment [1] (setting [3]), 710 µM at Cathepsin D (Cat D) (setting [4]) and 0.093 µM in experiment [2] (setting [5]).
For `Cc1cc(C(F)(F)F)cnc1C(=O)Nc1ccc2c(c1)[C@@]1(C)N=C(N)C(C)(C)S(=O)(=O)[C@H]1CC(C)(C)O2` [Example 103, N-((4aS,11bR)-2-amino-3,3,6,6,11b-pentamethyl-4,4-dioxido-4a,5,6,11b-tetrahydro-3H-[1]benzoxepino[4,5-b][1,4]thiazin-10-yl)-3-methyl-5-(trifluoromethyl)-2-pyridinecarboxamide], in that order: 0.018 µM, 143 µM and 0.023 µM.
As for `CC1(C)C(N)=N[C@]2(C)c3cc(Nc4nccc5cc(C#N)cnc45)ccc3CCC[C@@H]2S1(=O)=O` [Example 33, 8-(((4aS,11bR)-2-amino-3,3,11b-trimethyl-4,4-dioxido-3,4a,5,6,7,11b-hexahydrobenzo[3,4]cyclohepta[1,2-b][1,4]thiazin-10-yl)amino)-1,7-naphthyridine-3-carbonitrile], the IC50 in experiment [1] (average IC50) was determined as 0.029 µM; on Cathepsin D (Cat D) (read-out: CatD IC50) it was 286 µM; in experiment [2] (setting [6]), 0.097 µM.
In the case of `CC1(C)C(N)=N[C@]2(C)c3cc(NC(=O)c4ccc(C#CC5CC5)cn4)ccc3OCC[C@H]2S1(=O)=O` [Example 193, N-((4aR,11bR)-2-amino-3,3,11b-trimethyl-4,4-dioxido-4a,5,6,11b-tetrahydro-3H-[1]benzoxepino[4,5-b][1,4]thiazin-10-yl)-5-(cyclopropylethynyl)-2-pyridinecarboxamide], the IC50 in experiment [1] (average IC50) came to 0.004 µM; at Cathepsin D (Cat D) (read-out: CatD IC50) it was 995 µM; in experiment [2] (setting [7]), 0.006 µM.
In the case of `COc1cnc(C(=O)Nc2cnc3c(c2)[C@@]2(C)N=C(N)C4(CCC4)S(=O)(=O)[C@@H]2CCO3)c(C)c1` [Example 64, N-((4a′R,11b′R)-2′-amino-1113′-methyl-4′,4′-dioxido-4a′,5′,6′,11b′-tetrahydrospiro[cyclobutane-1,3′-pyrido[3′,2′:6,7]oxepino[4,5-b][1,4]thiazin]-10′-yl)-5-methoxy-3-methyl-2-pyridinecarboxamide], the IC50 in experiment [1] (average IC50) is 0.059 µM; on Cathepsin D (Cat D) (read-out: CatD IC50), greater than 400 µM; in experiment [2] (HEK cell, average IC50), 0.184 µM.
With `C[C@H]1C[C@@H]2[C@](C)(N=C(N)C(C)(C)S2(=O)=O)c2cc(Nc3nccc4nc(OCc5ccn(C)n5)cnc34)ccc2O1` [Example 146, (4aR,6S,11bR)-3,3,6,11b-tetramethyl-N^~10^~-(2-((1-methyl-1H-pyrazol-3-yl)methoxy)pyrido[3,4-b]pyrazin-5-yl)-4a,5,6,11b-tetrahydro-3H-[1]benzoxepino[4,5-b][1,4]thiazine-2,10-diamine 4,4-dioxide], the IC50 is 0.005 µM in experiment [1] (setting [3]), 804 µM on Cathepsin D (Cat D) (setting [4]) and 0.004 µM in experiment [2] (setting [5]).
The matching figures for `Cc1cc(C(F)(F)F)cnc1C(=O)Nc1ccc2c(c1)[C@@]1(C)N=C(N)C(C)(C)S(=O)(=O)[C@@H]1CC(C)(C)O2` [Example 113, N-((4aR,11bR)-2-amino-3,3,6,6,11b-pentamethyl-4,4-dioxido-4a,5,6,11b-tetrahydro-3H-[1]benzoxepino[4,5-b][1,4]thiazin-10-yl)-3-methyl-5-(trifluoromethyl)-2-pyridinecarboxamide]: 0.006 µM, 1200 µM and 0.002 µM.
`COc1cnc(C(=O)Nc2ccc3c(c2)[C@@]2(C)N=C(N)C(C)(C)S(=O)(=O)[C@@H]2CCO3)cn1` [Example 166, N-((4aR,11bR)-2-amino-3,3,11b-trimethyl-4,4-dioxido-4a,5,6,11b-tetrahydro-3H-[1]benzoxepino[4,5-b][1,4]thiazin-10-yl)-5-methoxy-2-pyrazinecarboxamide]: the IC50 in experiment [1] (average IC50) was 0.017 µM; on Cathepsin D (Cat D) (read-out: CatD IC50), 1130 µM; in experiment [2] (setting [7]), 0.0074 µM.
With `COc1cnc2c(Nc3ccc4c(c3)[C@@]3(C)N=C(N)C(C)(C)S(=O)(=O)[C@@H]3CCC4)nccc2n1` [Example 48, (4aR,11bR)-N^~10^~-(2-methoxypyrido[3,4-b]pyrazin-5-yl)-3,3,11b-trimethyl-3,4a,5,6,7,11b-hexahydrobenzo[3,4]cyclohepta[1,2-b][1,4]thiazine-2,10-diamine 4,4-dioxide], the IC50 in experiment [1] (average IC50) stood at 0.041 µM; on Cathepsin D (Cat D) (read-out: CatD IC50), 393 µM; in experiment [2] (setting [6]) it was 0.041 µM.
On to `CC1(C)C[C@@H]2[C@](C)(N=C(N)C(C)(C)S2(=O)=O)c2cc(Nc3nccc4cc(C#N)cnc34)ccc2O1` [Example 112, 8-(((4aR,11bR)-2-amino-3,3,6,6,11b-pentamethyl-4,4-dioxido-4a,5,6,11b-tetrahydro-3H-[1]benzoxepino[4,5-b][1,4]thiazin-10-yl)amino)-1,7-naphthyridine-3-carbonitrile], for which the figures for the IC50 (in experiment [1] (setting [3]); at Cathepsin D (Cat D) (setting [4]); in experiment [2] (setting [5])) were 0.003 µM, 316 µM and 0.002 µM, respectively.
For `COc1cnc(C(=O)Nc2ccc3c(c2)[C@@]2(C)N=C(N)C(C)(C)S(=O)(=O)[C@@H]2CCO3)c(C)c1` [Example 158, N-((4aR,11bR)-2-amino-3,3,11b-trimethyl-4,4-dioxido-4a,5,6,11b-tetrahydro-3H-[1]benzoxepino[4,5-b][1,4]thiazin-10-yl)-5-methoxy-3-methyl-2-pyridinecarboxamide], in that order: 0.021 µM, greater than 400 µM and 0.007 µM.
Consider `COc1cccnc1Nc1ccc2c(c1)[C@@]1(C)N=C(N)C(C)(C)S(=O)(=O)[C@@H]1CCO2` [Example 13, (4aR,11bR)-N^~10^~-(3-methoxy-2-pyridinyl)-3,3,11b-trimethyl-4a,5,6,11b-tetrahydro-3H-[1]benzoxepino[4,5-b][1,4]thiazine-2,10-diamine 4,4-dioxide], for which the IC50 in experiment [1] (average IC50) is 0.094 µM; at Cathepsin D (Cat D) (read-out: CatD IC50) it was 369 µM; in experiment [2] (setting [6]), 0.073 µM.
On to `Cc1cc(Cl)cnc1C(=O)Nc1ccc2c(c1)[C@@]1(C)N=C(N)C(C)(C)S(=O)(=O)[C@H]1C[C@H](C)O2` [Example 183, N-((4aS,6S,11bR)-2-amino-3,3,6,11b-tetramethyl-4,4-dioxido-4a,5,6,11b-tetrahydro-3H-[1]benzoxepino[4,5-b][1,4]thiazin-10-yl)-5-chloro-3-methyl-2-pyridinecarboxamide], for which the IC50 was 0.009 µM in experiment [1] (average IC50), 44 µM on Cathepsin D (Cat D) (read-out: CatD IC50) and 0.003 µM in experiment [2] (setting [7]).
For the molecule `CC#CCOc1cnc(C(=O)Nc2ccc3c(c2)[C@@]2(C)N=C(N)C(C)(C)S(=O)(=O)[C@@H]2CCO3)cn1` [Example 191, N-((4aR,11bR)-2-amino-3,3,11b-trimethyl-4,4-dioxido-4a,5,6,11b-tetrahydro-3H-[1]benzoxepino[4,5-b][1,4]thiazin-10-yl)-5-(2-butyn-1-yloxy)-2-pyrazinecarboxamide], the IC50 in experiment [1] (average IC50) worked out at 0.0007 µM; at Cathepsin D (Cat D) (read-out: CatD IC50) it was 624 µM; in experiment [2] (setting [7]), 0.0003 µM.
Turning to `Cc1cc(COc2cnc(C(=O)Nc3ccc4c(c3)[C@@]3(C)N=C(N)C(C)(C)S(=O)(=O)[C@@H]3C[C@H](C)O4)cn2)on1` [Example 78, N-((4aR,6S,11bR)-2-amino-3,3,6,11b-tetramethyl-4,4-dioxido-4a,5,6,11b-tetrahydro-3H-[1]benzoxepino[4,5-b][1,4]thiazin-10-yl)-5-((3-methyl-5-isoxazolyl)methoxy)-2-pyrazinecarboxamide], the IC50 worked out at 0.007 µM in experiment [1] (average IC50), 407 µM on Cathepsin D (Cat D) (read-out: CatD IC50) and 0.026 µM in experiment [2] (setting [6]).
Regarding `CC1(C)C(N)=N[C@]2(C)c3cc(NC(=O)c4ccc(Cl)cn4)ccc3OCC[C@H]2S1(=O)=O` [Example 186, N-((4aR,11bR)-2-amino-3,3,11b-trimethyl-4,4-dioxido-4a,5,6,11b-tetrahydro-3H-[1]benzoxepino[4,5-b][1,4]thiazin-10-yl)-5-chloro-2-pyridinecarboxamide], the 50% inhibitory concentration (IC50) was found to be 0.006 µM in experiment [1] (average IC50), 279 µM at Cathepsin D (Cat D) (read-out: CatD IC50) and 0.01 µM in experiment [2] (setting [7]).
`CC#C[C@@H](C)Oc1ccc(C(=O)Nc2ccc3c(c2)[C@@]2(C)N=C(N)C(C)(C)S(=O)(=O)[C@@H]2CCO3)nc1` (single isomer, unassigned) [Example 68]: the IC50 was 0.002 µM in experiment [1] (average IC50), 1990 µM at Cathepsin D (Cat D) (read-out: CatD IC50), greater than 1200 µM at Cathepsin D (Cat D) (text summary referring to data in Table 2) and 0.001 µM in experiment [2] (setting [6]).
Consider `CC1(C)C(N)=N[C@]2(C)c3cc(Nc4nccc5cc(Cl)cnc45)cnc3OCC[C@H]2S1(=O)=O` [Example 19, (4aR,11bR)-N^~10^~-(3-chloro-1,7-naphthyridin-8-yl)-3,3,11b-trimethyl-4a,5,6,11b-tetrahydro-3H-pyrido[3′,2′:6,7]oxepino[4,5-b][1,4]thiazine-2,10-diamine4,4-dioxide], for which the IC50 was 0.003 µM in experiment [1] (average IC50), 263 µM on Cathepsin D (Cat D) (read-out: CatD IC50) and 0.019 µM in experiment [2] (setting [6]).

As a reminder, the IC50 is the concentration that gives 50% inhibition.
